pIC50: −log10 of the molar value. Numbered stars: 1 amine (or outer) side, 2 acyl side, 3 side chain; on linkers, the order of the positions; unused ones are H or OH. Bridge positions count the residues as written; N and C are the ends. Square brackets hold non-standard residues; d marks the D form. Peptide text beside a SMILES is read from it. * marks the point of attachment. hPhe(3,5-F2-4-CF3) = N[C@@H](CCc1cc(F)c(C(F)(F)F)c(F)c1)C(=O)O; hPhe(3-Cl-4-CF3) = N[C@@H](CCc1ccc(C(F)(F)F)c(Cl)c1)C(=O)O; NEtPhe(4-CF3) = CCN[C@@H](Cc1ccc(C(F)(F)F)cc1)C(=O)O; hPhe(4-CF3) = N[C@@H](CCc1ccc(C(F)(F)F)cc1)C(=O)O; NMePhe(4-Cl) = CN[C@@H](Cc1ccc(Cl)cc1)C(=O)O; NMedβ3hAla = C[C@H](CC(=O)[*:2])N(C)[*:1]; NMeGly(cPent) = CN[C@H](C(=O)O)C1CCCC1; NMeCha = CN[C@@H](CC1CCCCC1)C(=O)O; Hyp = O=C(O)[C@@H]1C[C@@H](O)CN1; NMeChg = CN[C@H](C(=O)O)C1CCCCC1; NMeF = CN[C@@H](Cc1ccccc1)C(=O)O; NMeT = CN[C@H](C(=O)O)[C@@H](C)O; N(CH2CH2)2CF2 = FC1(F)CCN(*)CC1; NMeD = CN[C@@H](CC(=O)O)C(=O)O; NMeL = CN[C@@H](CC(C)C)C(=O)O; NMeV = CN[C@H](C(=O)O)C(C)C; d(β3hA) = C[C@@H](N)CC(=O)O; Pip = O=C(O)[C@@H]1CCCCN1; NMeA = CN[C@@H](C)C(=O)O; NMeAib = CNC(C)(C)C(=O)O; Nle = CCCC[C@H](N)C(=O)O; Piperidide = C1CCN(*)CC1; dNMeA = CN[C@H](C)C(=O)O; Ac5c = NC1(C(=O)O)CCCC1; Aze = O=C(O)[C@@H]1CCN1; Ac4c = NC1(C(=O)O)CCC1; Sar = CNCC(=O)O
What was measured:
[1] = target: protein-protein interaction between Kras and SOS1 (biotin-tagged human Kras loaded with GDP, His-tagged human SOS1) (Homo sapiens (Human), UniProt P01116, G12D); experiment: Protein-protein interaction inhibition between Kras and SOS1 (KrasG12D-SOS PPI) using AlphaScreen; format: biochemical; conditions: AlphaScreen; biotin-tagged human Kras loaded with GDP, His-tagged human SOS1; read-out: KRAS G12D-SOS PPI IC50;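 also: kras produced in E. coli, Ni-coupled donor beads and streptavidin acceptor beads, excitation 680 nm with emission detected at 520–620 nm via singlet oxygen transfer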
[2] = test system: Human pancreatic cancer cell line AsPC-1 (G12D mutation Kras); experiment: AsPC-1 cell growth inhibition (AsPC-1 CGI); format: cell-based; conditions: read-out: AsPC-1 cell growth inhibition, 50% growth inhibitory concentration (IC50 value); 96 hours, CellTiter-Glo, values classified in ranges
Method: Test compounds were serially dilated with dimethyl sulfoxide, and 200 nL was then dispensed to a U-bottom 96-well plate using Labcyte Echo. […] The cell suspension was dispensed to a. plate containing a test compound at 100 μL per well and incubated at 37° C. in a 5% carbon dioxide gas incubator. 96 hours later, 80 μL of CellTiter-Glo (Promega) was added to each well and fluorescence was measured.

| SMILES | pIC50 [1] | pIC50 [2] |
| --- | --- | --- |
| CC[C@H](C)[C@@H]1NC(=O)[C@H](CC(C)C)N(C)C(=O)C[C@@H](C(=O)N2CCCCC2)N(C)C(=O)[C@H](CC2CCCCC2)N(C)C(=O)C2(CCCC2)NC(=O)[C@@H]2CCCN2C(=O)[C@H](CCc2ccc(C(F)(F)F)c(Cl)c2)NC(=O)CN(C)C(=O)[C@H](CC2CCCCC2)N(C)C(=O)[C@@H]2CCN2C(=O)[C@H](C)N(C)C1=O [Compound 87] ([NMeL]I[NMeA][Aze][NMeCha][Sar][hPhe(3-Cl-4-CF3)]P[Ac5c][NMeCha][NMeD]-Piperidide; lactam N-11) | 7.35 | < 6.30 |
| CC[C@H](C)[C@@H]1NC(=O)[C@H]([C@@H](C)O)N(C)C(=O)C[C@@H](C(=O)N2CCCCC2)N(C)C(=O)[C@H](C(C)C)N(C)C(=O)C2(CCCC2)NC(=O)[C@@H]2CCCN2C(=O)[C@H](CCc2ccc(C(F)(F)F)c(Cl)c2)NC(=O)CN(C)C(=O)[C@H](CC2CCCCC2)N(C)C(=O)[C@@H]2CCN2C(=O)[C@H](C)N(C)C1=O [Compound 91] ([NMeT]I[NMeA][Aze][NMeCha][Sar][hPhe(3-Cl-4-CF3)]P[Ac5c][NMeV][NMeD]-Piperidide; lactam N-11) | 8.82 | < 6.30 |
| CC[C@H](C)[C@@H]1NC(=O)[C@H](CC(C)C)N(C)C(=O)C[C@@H](C(=O)N(C)C)NC(=O)[C@H](C(C)C)N(C)C(=O)C2(CCCC2)NC(=O)[C@H](CC(=O)N2CCC(F)(F)CC2)N(C)C(=O)[C@H](CCc2ccc(C(F)(F)F)c(Cl)c2)NC(=O)CN(C)C(=O)[C@H](CC2CCCCC2)N(C)C(=O)CN(C)C(=O)CN(C)C1=O [Compound 97] ([NMeL]I[Sar][Sar][NMeCha][Sar][hPhe(3-Cl-4-CF3)][NMeD](N(CH2CH2)2CF2)[Ac5c][NMeV]D-NMe2; lactam N-11) | 7.40 | < 6.30 |
| CCCC[C@@H]1NC(=O)[C@H](CCc2ccc(C(F)(F)F)c(Cl)c2)NC(=O)CN(C)C(=O)[C@H](Cc2ccc(Cl)cc2)N(C)C(=O)[C@@H]2CCN2C(=O)[C@H](C)N(C)C(=O)[C@H]([C@@H](C)CC)NC(=O)[C@@H]2CCCCN2C(=O)C[C@@H](C(=O)N2CCCCC2)N(C)C(=O)[C@H](CC(C)C)NC(=O)C(C)(C)N(C)C1=O [Compound 103] ([Pip]I[NMeA][Aze][NMePhe(4-Cl)][Sar][hPhe(3-Cl-4-CF3)][Nle][NMeAib]L[NMeD]-Piperidide; lactam N-11) | 7.66 | < 6.30 |
| CC[C@H](C)[C@@H]1NC(=O)[C@H](C)N(C)C(=O)C[C@@H](C(=O)N2CCCCC2)N(C)C(=O)[C@H](C(C)C)N(C)C(=O)C2(CCCC2)NC(=O)[C@@H]2CCCN2C(=O)[C@H](CCc2ccc(C(F)(F)F)c(Cl)c2)NC(=O)[C@@H](C)N(C)C(=O)[C@H](CC2CCCCC2)N(C)C(=O)[C@@H]2CCN2C(=O)CN(C)C1=O [Compound 115] ([NMeA]I[Sar][Aze][NMeCha][dNMeA][hPhe(3-Cl-4-CF3)]P[Ac5c][NMeV][NMeD]-Piperidide; lactam N-11) | 8.22 | < 6.30 |
| CC[C@H](C)[C@@H]1NC(=O)[C@H](CC(C)C)N(C)C(=O)C[C@@H](C(=O)N2CCCCC2)N(C)C(=O)[C@H](C2CCCCC2)N(C)C(=O)C2(CCCC2)NC(=O)[C@H]([C@@H](C)O)N(C)C(=O)[C@H](CCc2ccc(C(F)(F)F)c(Cl)c2)NC(=O)CN(C)C(=O)[C@H](CC2CCCCC2)N(C)C(=O)CN(C)C(=O)CN(C)C1=O [Compound 118] ([NMeL]I[Sar][Sar][NMeCha][Sar][hPhe(3-Cl-4-CF3)][NMeT][Ac5c][NMeChg][NMeD]-Piperidide; lactam N-11) | 8.72 | < 6.30 |
| CC[C@H](C)[C@@H]1NC(=O)[C@H](CC(C)C)N(C)C(=O)C[C@@H](C(=O)N2CCCCC2)N(C)C(=O)[C@H](C2CCCC2)N(C)C(=O)C2(CCCC2)NC(=O)[C@@H]2CCCN2C(=O)[C@H](CCc2ccc(C(F)(F)F)c(Cl)c2)NC(=O)CN(C)C(=O)[C@H](Cc2ccc(Cl)cc2)N(C)C(=O)[C@@H]2CCN2C(=O)[C@H](C)N(C)C1=O [Compound 120] ([NMeL]I[NMeA][Aze][NMePhe(4-Cl)][Sar][hPhe(3-Cl-4-CF3)]P[Ac5c][NMeGly(cPent)][NMeD]-Piperidide; lactam N-11) | 9.26 | ≥ 7.70 |
| CC[C@H](C)[C@@H]1NC(=O)[C@H](CC(C)C)N(C)C(=O)C[C@@H](C)NC(=O)[C@H](C(C)C)N(C)C(=O)[C@H](Cc2ccccc2)N(C)C(=O)[C@H](CC(C)C)N(C)C(=O)[C@H](CCc2ccc(C(F)(F)F)cc2)NC(=O)CN(C)C(=O)[C@H](Cc2ccc(Cl)cc2)N(C)C(=O)CN(C)C(=O)CN(C)C1=O [Compound 124] (cyclo(I[Sar][Sar][NMePhe(4-Cl)][Sar][hPhe(4-CF3)][NMeL][NMeF][NMeV][d(β3hA)][NMeL])) | 6.85 | < 6.30 |
| CCO[C@@H]1C[C@H]2C(=O)NC3(CCC3)C(=O)N(C)[C@@H](C3CCCC3)C(=O)N(C)[C@H](C)CC(=O)N(C)[C@@H](CC(C)C)C(=O)N[C@@H]([C@@H](C)CC)C(=O)N(C)[C@@H](C)C(=O)N3CC[C@H]3C(=O)N(CC)[C@@H](Cc3ccc(C(F)(F)F)cc3)C(=O)N(C)CC(=O)N[C@@H](CCc3cc(F)c(C(F)(F)F)c(F)c3)C(=O)N2C1 [Compound 132] (cyclo([Ac4c][NMeGly(cPent)][NMedβ3hAla][NMeL]I[NMeA][Aze][NEtPhe(4-CF3)][Sar][hPhe(3,5-F2-4-CF3)][Hyp](Et))) | 9.02 | ≥ 7.70 |
